#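 Following 48 hours of exposure in 96-well plates, responses at five concentrations were used to interpolate endpoints linearly. GI50 = concentration required for 50% inhibition of growth. TGI: concentration producing complete growth inhibition.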
# How the values were obtained:
# Assay in all cases: DTP human tumour cell line panel, 48 h
# EKVX NSCLC = tested on: EKVX NSCLC
# TK-10 renal = tested on: TK-10 renal
# OVCAR-8 ovarian = tested on: OVCAR-8 ovarian
# HCT-116 colon = tested on: HCT-116 colon
# SF-268 CNS = tested on: SF-268 CNS
# HCC-2998 colon = tested on: HCC-2998 colon
# NCI-H23 lung = tested on: NCI-H23 lung
# KM12 colon = tested on: KM12 colon
# ACHN renal = tested on: ACHN renal
# OVCAR-5 ovarian = tested on: OVCAR-5 ovarian
# BT-549 breast = tested on: BT-549 breast
Compound,TGI (EKVX NSCLC),TGI (TK-10 renal),TGI (OVCAR-8 ovarian),TGI (HCT-116 colon),TGI (SF-268 CNS),TGI (HCC-2998 colon),TGI (NCI-H23 lung),TGI (KM12 colon),TGI (ACHN renal),TGI (OVCAR-5 ovarian),TGI (BT-549 breast),GI50 (EKVX NSCLC),GI50 (TK-10 renal),GI50 (OVCAR-8 ovarian),GI50 (SF-268 CNS),GI50 (HCC-2998 colon),GI50 (NCI-H23 lung),GI50 (KM12 colon),GI50 (ACHN renal),GI50 (OVCAR-5 ovarian)
CC(N)C(=O)OCN1C(=O)C2C3C=CC(C2C1=O)C1C2C(=O)N(COC(=O)C(C)N)C(=O)C2C31 (stereo unspecified),> 100 µM,> 100 µM,47.8 µM,44.9 µM,47.9 µM,97.9 µM,43.2 µM,41.6 µM,70.4 µM,> 100 µM,,,,,,,,,,
CNC1C(O)C(NC)C2OC3(O)C(=O)CC(C)OC3OC2C1O (stereo unspecified),> 100 µM,> 100 µM,> 100 µM,> 100 µM,> 100 µM,> 100 µM,> 100 µM,> 100 µM,> 100 µM,> 100 µM,> 100 µM,,,,,,,,,
C1CCC(OCc2nnn3c2CCC3)OC1 (stereo unspecified),> 100 µM,> 100 µM,> 100 µM,> 100 µM,,> 100 µM,> 100 µM,> 100 µM,> 100 µM,> 100 µM,,,,,,,,,,
CCCCC(C(=O)N/N=C/c1ccc([N+](=O)[O-])o1)C(=O)N/N=C/c1ccc([N+](=O)[O-])o1,26.6 µM,7.73 µM,5.89 µM,2.9 µM,20.3 µM,,4.65 µM,15.4 µM,3.69 µM,7.23 µM,17.2 µM,,,,,,,,,
Cc1nc2c(O)cc3c4c(=O)n(C)c(=O)n(C)c4n(Cc4ccccc4)c3c2nc1C,50.2 µM,38.4 µM,33.1 µM,52.1 µM,32.9 µM,40.3 µM,38 µM,54 µM,31.7 µM,43.6 µM,,,,,,,,,,
Cc1cccc(O)c1-c1nnc(CCCCCCCCc2nnc(-c3c(C)cccc3O)n2N)n1N,> 100 µM,> 59 µM,,> 100 µM,> 100 µM,> 100 µM,> 100 µM,> 100 µM,> 100 µM,> 100 µM,> 100 µM,,,,,,,,,
CO[C@H]1ON=C(c2c(C)cc(C)cc2C)[C@@H]1C1(c2ccccc2)ON=C(c2c(C)cc(C)cc2C)O1 (stereo partly specified),> 100 µM,> 100 µM,> 100 µM,> 100 µM,> 100 µM,> 100 µM,> 100 µM,> 100 µM,> 100 µM,> 100 µM,,,,,,,,,,
[O-]c1c[n+](CCCC[n+]2cc([O-])on2)no1,> 100 µM,> 100 µM,> 100 µM,> 100 µM,> 100 µM,> 100 µM,> 100 µM,> 100 µM,> 100 µM,> 100 µM,> 100 µM,,,,,,,,,
C=C1C(=O)OC2/C=C(\C)C3OC3/C=C(/C(=O)OC)C(O)C(OC(=O)C3(C)OC3C)C12 (stereo unspecified),7.44 µM,9.14 µM,5.85 µM,2.43 µM,29.9 µM,4.66 µM,3.5 µM,11.2 µM,10.7 µM,30.4 µM,,,,,,,,,,
COc1ccc(CC2c3cc(OC)c(OC)c(OC)c3CC[N+]2(C)C)cc1Oc1ccc(CC2c3cc4c(c(OC)c3CC[N+]2(C)C)OCO4)cc1 (stereo unspecified),> 100 µM,> 100 µM,> 100 µM,> 100 µM,> 100 µM,> 100 µM,> 100 µM,> 100 µM,> 100 µM,> 100 µM,> 100 µM,,,,,,,,,
CC(C)OC(=O)Nc1cccc(Cl)c1,> 100 µM,> 100 µM,> 100 µM,> 100 µM,> 100 µM,> 100 µM,> 100 µM,> 100 µM,> 100 µM,> 100 µM,> 100 µM,,,,,,,,,
Cn1cc(-c2csc(-c3cn(C)c4ccc(Br)cc34)n2)c2cnccc21,3.48 µM,3.22 µM,3.61 µM,,3.67 µM,3.57 µM,3.65 µM,3.69 µM,3.4 µM,3.22 µM,,1860 nM,1710 nM,1900 nM,1900 nM,1900 nM,1930 nM,1970 nM,1970 nM,1780 nM

# From PubChem BioAssay (NCI)
